This test concerns the target T1, SIRT1 (Homo sapiens, UniProt Q96EB6).
T1 sequence (Q96EB6 1-747): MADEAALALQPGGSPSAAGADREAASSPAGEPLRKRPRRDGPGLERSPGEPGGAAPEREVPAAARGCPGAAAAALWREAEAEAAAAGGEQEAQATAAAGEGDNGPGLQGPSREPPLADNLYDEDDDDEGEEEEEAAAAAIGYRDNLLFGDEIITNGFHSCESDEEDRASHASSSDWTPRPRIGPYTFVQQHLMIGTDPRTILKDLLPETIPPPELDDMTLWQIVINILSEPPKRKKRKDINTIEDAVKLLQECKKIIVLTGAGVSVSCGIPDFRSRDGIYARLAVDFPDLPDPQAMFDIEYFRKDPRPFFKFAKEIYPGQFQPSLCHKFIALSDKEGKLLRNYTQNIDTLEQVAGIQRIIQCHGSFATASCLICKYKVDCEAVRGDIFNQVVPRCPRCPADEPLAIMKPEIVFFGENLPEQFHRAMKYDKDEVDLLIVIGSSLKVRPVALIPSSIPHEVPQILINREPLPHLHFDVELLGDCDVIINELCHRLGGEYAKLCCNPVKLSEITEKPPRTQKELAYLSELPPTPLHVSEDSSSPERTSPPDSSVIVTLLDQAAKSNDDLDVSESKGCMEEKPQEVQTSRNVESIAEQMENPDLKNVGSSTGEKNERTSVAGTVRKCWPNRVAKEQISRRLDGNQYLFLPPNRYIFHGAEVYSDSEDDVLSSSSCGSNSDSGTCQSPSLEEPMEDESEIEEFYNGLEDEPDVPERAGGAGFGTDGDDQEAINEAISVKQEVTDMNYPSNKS
The test is described as follows: Trp mass spectrometry assay of SIRT1 activation (Ac-R-H-K-K(Ac)-W-NH2 peptide). It counts as biochemical. The conditions noted are these: Trp peptide 0.5 μM, 120 μM βNAD+, 10 nM SIRT1, 25 min at 25° C.; for Emax: 25 min, relative to control (100%), read-out: TRP MAX RESP (percent maximum fold activation). The essentials:
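Mass spectrometry read-out (OAADPR formed, or deacetylated Trp peptide) after a 25 min NAD-dependent deacetylation by E. coli-expressed His-SIRT1, stopped with formic acid.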

The text below walks through data of patent US10072011B2, “Substituted bridged urea analogs as sirtuin modulators” (GlaxoSmithKline Intellectual Property (No.2) Limited, priority 2014, dated 2018).

Each structure is given as a SMILES string.

Turning to `COc1ccnc(NC(=O)N2c3nc(C(=O)N[C@@H]4CC4(F)F)ccc3N3CC[C@H]2C3)c1` (single isomer, unassigned) [Example 274], the Emax was more than 150% and the “TRP Activity (EC1.5, concentration of test compound that results in 150% activation of SIRT1)” value is “B (EC1.5 1-25 μM)”.
On to `C[C@@H](NC(=O)c1ccc2c(n1)N(C(=O)NCC(=O)N(C)C)[C@H]1CCN2C1)C(F)(F)F` [Example 217, (4S)—N5-(2-(dimethylamino)-2-oxoethyl)-N7-((R)-1,1,1-trifluoropropan-2-yl)-3,4-dihydro-1,4-methanopyrido[2,3-b][1,4]diazepine-5,7(2H)-dicarboxamide], for which the Emax was more than 150% and the “TRP Activity (EC1.5, concentration of test compound that results in 150% activation of SIRT1)” value is given as “B (EC1.5 1-25 μM)”.
On to `CC(C)(C)CNC(=O)c1ccc2c(n1)N(C(=O)Nc1ccccn1)[C@H]1CCN2C1` [Example 15, (4S)—N-7-neopentyl-N-5-(pyridin-2-yl)-3,4-dihydro-1,4-methanopyrido[2,3-b][1,4]diazepine-5,7(2H)-dicarboxamide], for which the Emax is more than 150% and the “TRP Activity (EC1.5, concentration of test compound that results in 150% activation of SIRT1)” value was “A (EC1.5<1 μM)”.
The matching figures for `O=C(NC[C@H]1CCCO1)c1ccc2c(n1)N(C(=O)Nc1ccccn1)[C@H]1CCN2C1` [Example 42, (4S)—N5-(pyridin-2-yl)-N7-(((R)-tetrahydrofuran-2-yl)methyl)-3,4-dihydro-1,4-methanopyrido[2,3-b][1,4]diazepine-5,7(2H)-dicarboxamide]: more than 150% and “B (EC1.5 1-25 μM)”.
Take `N[C@H](CNC(=O)c1ccc2c(n1)N(C(=O)Nc1ncccn1)[C@H]1CCN2C1)C(F)(F)F` (single isomer, unassigned) [Example 235]: the Emax is more than 150% and the “TRP Activity (EC1.5, concentration of test compound that results in 150% activation of SIRT1)” value is on record as “A (EC1.5<1 μM)”.
Turning to `Cc1cc(C(=O)N[C@H](C)C(F)(F)F)nc2c1N1CC[C@@H](C1)N2C(=O)Nc1ccccn1` [Example 288, (4S)-9-methyl-N5-(pyridin-2-yl)-N7-((R)-1,1,1-trifluoropropan-2-yl)-3,4-dihydro-1,4-methanopyrido[2,3-b][1,4]diazepine-5,7(2H)-dicarboxamide], the Emax was more than 150% and the “TRP Activity (EC1.5, concentration of test compound that results in 150% activation of SIRT1)” value was “A (EC1.5<1 μM)”.
In the case of `Cc1ncc(-c2ccnc(NC(=O)N3c4nc(C(=O)N[C@H](C)C(F)(F)F)cc(C)c4N4CC[C@H]3C4)c2)o1` [Example 252, (4S)-9-methyl-N5-(4-(2-methyloxazol-5-yl)pyridin-2-yl)-N7-((R)-1,1,1-trifluoropropan-2-yl)-3,4-dihydro-1,4-methanopyrido[2,3-b][1,4]diazepine-5,7(2H)-dicarboxamide], the Emax is less than 150% and the “TRP Activity (EC1.5, concentration of test compound that results in 150% activation of SIRT1)” value is “A (EC1.5<1 μM)”.
The matching figures for `O=C(O)c1ccnc(NC(=O)N2c3nc(C(=O)NCC(F)(F)F)ccc3N3CC[C@H]2C3)c1` [Example 267, 2-((4S)-7-((2,2,2-trifluoroethyl)carbamoyl)-2,3,4,5-tetrahydro-1,4-methanopyrido[2,3-b][1,4]diazepine-5-carboxamido)isonicotinic acid]: more than 150% and “B (EC1.5 1-25 μM)”.
Consider `O=C(NCC(F)(F)F)c1cc(O)c2c(n1)N(C(=O)Nc1ccccn1)[C@H]1CCN2C1` [Example 261, (4S)-9-hydroxy-N5-(pyridin-2-yl)-N7-(2,2,2-trifluoroethyl)-3,4-dihydro-1,4-methanopyrido[2,3-b][1,4]diazepine-5,7(2H)-dicarboxamide], for which the Emax is more than 150% and the “TRP Activity (EC1.5, concentration of test compound that results in 150% activation of SIRT1)” value is recorded as “A (EC1.5<1 μM)”.
For the compound `C[C@@H](NC(=O)c1ccc2c(n1)N(C(=O)Nc1cc(NCCO)ccn1)[C@H]1CCN2C1)C(F)(F)F` [Example 309, (4S)—N5-(4-((2-hydroxyethyl)amino)pyridin-2-yl)-N7-((R)-1,1,1-trifluoropropan-2-yl)-3,4-dihydro-1,4-methanopyrido[2,3-b][1,4]diazepine-5,7(2H)-dicarboxamide], the Emax was less than 150% and the “TRP Activity (EC1.5, concentration of test compound that results in 150% activation of SIRT1)” value is “A (EC1.5<1 μM)”.
On to `Cc1cc(NC(=O)N2c3nc(C(=O)N[C@H](C)C(F)(F)F)ccc3N3CC[C@H]2C3)ncc1F` [Example 238, (4S)—N5-(5-fluoro-4-methylpyridin-2-yl)-N7-((R)-1,1,1-trifluoropropan-2-yl)-3,4-dihydro-1,4-methanopyrido[2,3-b][1,4]diazepine-5,7(2H)-dicarboxamide], for which the Emax was more than 150% and the “TRP Activity (EC1.5, concentration of test compound that results in 150% activation of SIRT1)” value is given as “A (EC1.5<1 μM)”.
On to `O=C(NCc1nnn[nH]1)c1ccc2c(n1)N(C(=O)Nc1cc(OC[C@H](O)CO)ccn1)[C@H]1CCN2C1` [Example 256, (4S)—N7-((1H-tetrazol-5-yl)methyl)-N5-(4-((R)-2,3-dihydroxypropoxy)pyridin-2-yl)-3,4-dihydro-1,4-methanopyrido[2,3-b][1,4]diazepine-5,7(2H)-dicarboxamide], for which the Emax was more than 150% and the “TRP Activity (EC1.5, concentration of test compound that results in 150% activation of SIRT1)” value is given as “B (EC1.5 1-25 μM)”.
`O=C(NC1CCOCC1)c1ccc2c(n1)N(C(=O)Nc1ccccn1)[C@H]1CCN2C1` [Example 4, (4S)—N-5-(pyridin-2-yl)-N-7-(tetrahydro-2H-pyran-4-yl)-3,4-dihydro-1,4-methanopyrido [2,3-b] [1, 4] diazepine-5, 7(2H)-dicarboxamide]: the Emax was more than 150% and the “TRP Activity (EC1.5, concentration of test compound that results in 150% activation of SIRT1)” value is “B (EC1.5 1-25 μM)”.
For the compound `C[C@@H](NC(=O)c1ccc2c(n1)N(C(=O)Nc1cc(-c3cncn3C)ccn1)[C@H]1CCN2C1)C(F)(F)F` [Example 86, (4S)—N5-(4-(1-methyl-1H-imidazol-5-yl)pyridin-2-yl)-N7-((R)-1,1,1-trifluoropropan-2-yl)-3,4-dihydro-1,4-methanopyrido[2,3-b][1,4]diazepine-5,7(2H)-dicarboxamide], the Emax is more than 150% and the “TRP Activity (EC1.5, concentration of test compound that results in 150% activation of SIRT1)” value was “A (EC1.5<1 μM)”.
Turning to `Cc1ncc(-c2ccnc(NC(=O)N3c4nc(C(=O)N[C@H](C)C(F)(F)F)ccc4N4CC[C@H]3C4)c2)o1` [Example 128, (4S)—N5-(4-(2-methyloxazol-5-yl)pyridin-2-yl)-N7-((R)-1,1,1-trifluoropropan-2-yl)-3,4-dihydro-1,4-methanopyrido[2,3-b][1,4]diazepine-5,7(2H)-dicarboxamide], the Emax was more than 150% and the “TRP Activity (EC1.5, concentration of test compound that results in 150% activation of SIRT1)” value is on record as “A (EC1.5<1 μM)”.
Consider `O=C(NCC1CC1)c1ccc2c(n1)N(C(=O)Nc1ccc(Cl)cn1)[C@H]1CCN2C1` [Example 51, (4S)—N5-(5-chloropyridin-2-yl)-N7-(cyclopropylmethyl)-3,4-dihydro-1,4-methanopyrido[2,3-b][1,4]diazepine-5,7(2H)-dicarboxamide], for which the Emax was more than 150% and the “TRP Activity (EC1.5, concentration of test compound that results in 150% activation of SIRT1)” value was “A (EC1.5<1 μM)”.
